{"source": "patent US9101577B2", "about": "“Analgesic pharmaceutical composition for oral administration” (Warszawski Uniwersytet Medyczny, priority 2011, dated 2015)", "key": {"Male Wistar rats [1]": {"system": "Male Wistar rats", "assay": "Acute activity after single p.o. administration, paw withdrawal test (Randall and Selitto), % of analgesia", "assay_type": "in vivo, rat", "method": "(§1) Male Wistar rats (250-300 g) were housed in a room maintained at a temperature of 20±2° C. under 12 h-12 h light-dark cycles. The animals had free access to food and water. Experimental groups consisted of six rats.\n(§2) Drugs • Morphine at a dose of 15 mg/kg, codeine at a dose of 175 mg/kg, tramadol at a dose of 125 mg/kg and oxycodone at a dose of 5 mg/kg were dissolved in distilled water; • Dihydrocodeine at a dose of 50 mg/kg was suspended in 1% solution of methylcellulose; • Magnesium lactate (in micronized form)—at a dose of 15 mg magnesium ions/kg (150 mg of magnesium lactate/kg) was suspended in 0.5% solution of methylcellulose; • Magnesium lactate in normal (non-micronized) form—at doses of 15 or 30 mg magnesium ions/kg (150 or 300 mg of magnesium lactate/kg, respectively) was suspended in 0.5% solution of methylcellulose; • Magnesium citrate (in micronized and normal form)—at a dose of 15 mg magnesium ions/kg (112 mg of magnesium citrate/kg) was dissolved in distilled water; • Magnesium hydroaspartate (in micronized and normal form)—at a dose of 15 mg magnesium ions/kg (216 mg of magnesium hydroaspartate/kg) was suspended in 0.5% solution of methylcellulose; • Magnesium chloride (in micronized and normal form)—at a dose of 15 mg magnesium ions/kg (59.5 mg of magnesium chloride/kg) was dissolved in distilled water; • Control animals received a 0.5% solution of methylcellulose, a 1% solution of methylcellulose and distilled water, respectively, according to the same time schedule.\nMagnesium salts and investigated opioids were administered concomitantly.\nThe micronized form of magnesium salts used in experiments contains particles of magnesium compounds of size D90<50 μm.\nThe normal magnesium salts form used in experiments contains particles of sizes commonly available in the market.\nAcute activity of investigated drugs was measured in short time periods (from 5 to 300 min) after single administration.\n(§3) All drugs were administered per os (p.o.); literally—orally. However, in practice, drugs were administered intragastric via a gastric tube.\n(§4) Changes in pain thresholds were determined using a mechanical stimuli—the modification of the classic paw withdrawal test described by Randall and Selitto [1957]. In order to produce mechanical stimulation, progressively increasing pressure was applied to the dorsal surface of the rat's paw using an analgesymeter. The instrument used increased the force on the paw at a rate of 32 grams per second. The nociceptive threshold was defined as force in grams, at which the rat attempted to withdraw its right hindpaw and values of pressure were recorded at this very moment. At least two observers controlled the response.\n(§5) Nociceptive thresholds (average of two trials) measured for each animal before single administration of investigated drugs (measurement of acute activity) or in day 0 before the first administration (measurement of prolonged activity) constituted the baseline pain threshold—A. Next, measurements of the withdrawal threshold to mechanical stimuli were performed at 5, 15, 30, 60, 90, 120, 180, 240, 300 min after drug administration (measurements of acute activity) or every day before drug administration (measurements of prolonged activity)—B.\n(§6) In all experimental sessions (i.e. every day, each drug investigated) values of thresholds obtained (B) were compared to baseline (A).\n(§7) Changes in pain threshold were calculated as a percent of baseline value according to the following formula:\n(§8) [formula] • C—% of analgesia; A—pressure (in g), baseline pain threshold; B—pressure (in g) in consecutive measurements.\n(§9) Percents of analgesia values calculated as above for individual animals were subsequently used to calculate average values in particular experimental groups and for statistical analysis.\nThe results are expressed as mean values±standard deviation of the mean (±S.E.M.)."}, "Male Wistar rats [2]": {"system": "Male Wistar rats", "assay": "Prolonged activity on repeated daily p.o. administration (7 or 10 days), paw withdrawal test (Randall and Selitto)", "assay_type": "in vivo, rat", "method": "as §1, §2\nProlonged activity of the investigated drugs was measured the following day after initial administration, but before the next administration as well as after cessation of administration. Drugs were administered for seven consecutive days (administration of morphine, codeine, dihydrocodeine, oxycodone) or for ten days (administration of tramadol).\nas §3, §4, §5, §6, §7, §8, §9\nThe results are expressed as mean values±standard […] of the mean (±S.E.M.). The statistical significance of differences between groups was evaluated by Student's t-test. p≦0.05 was accepted as statistically significant."}, "[3]": {"details": "single administration, 15 mg magnesium ions/kg p.o. with dihydrocodeine 50 mg/kg p.o."}, "[4]": {"details": "single administration, 15 mg magnesium ions/kg p.o. with morphine 15 mg/kg p.o."}, "[5]": {"details": "single administration, 15 mg magnesium ions/kg p.o. with oxycodone 5 mg/kg p.o."}, "[6]": {"details": "single administration, 15 mg magnesium ions/kg p.o. with tramadol 125 mg/kg p.o."}, "[7]": {"details": "30 mg magnesium ions/kg p.o. with codeine 175 mg/kg p.o., 7 days"}, "[8]": {"details": "30 mg magnesium ions/kg p.o. with morphine 15 mg/kg p.o., 7 days"}}}
{"compound": "CC(O)C(=O)[O-].CC(O)C(=O)[O-].[Mg+2]", "note": "(stereo not drawn) [normal magnesium lactate, Magnesium lactate]", "values": [{"measurement": "effect on analgesic activity of codeine", "setting": "Male Wistar rats [1]; single administration, 15 mg magnesium ions/kg p.o. with codeine 175 mg/kg p.o.", "result": "significantly enhanced the analgesic activity of codeine"}, {"measurement": "activity on dihydrocodeine analgesia in comparison (to micronized form / to magnesium lactate)", "setting": "Male Wistar rats [1]; [3]", "result": "somewhat weaker"}, {"measurement": "effect on dihydrocodeine analgesia", "setting": "Male Wistar rats [1]; [3]", "result": "significantly enhanced dihydrocodeine analgesia"}, {"measurement": "time course of activity on dihydrocodeine analgesia", "setting": "Male Wistar rats [1]; [3]", "result": "gradually increased and reached a maximum between min 45 and 90 of the measurements and then became weaker by min 210"}, {"measurement": "effect on morphine analgesia", "setting": "Male Wistar rats [1]; [4]", "result": "significantly enhanced morphine analgesia"}, {"measurement": "enhancement of morphine analgesia lasted up to", "setting": "Male Wistar rats [1]; [4]", "result": 180, "unit": "min"}, {"measurement": "time at which enhancement of morphine analgesia appeared", "setting": "Male Wistar rats [1]; [4]", "result": 60, "unit": "min"}, {"measurement": "effect on oxycodone analgesia", "setting": "Male Wistar rats [1]; [5]", "result": "significantly enhanced oxycodone analgesia"}, {"measurement": "time at which activity on oxycodone analgesia appeared", "setting": "Male Wistar rats [1]; [5]", "result": 5, "unit": "min"}, {"measurement": "time course of activity on oxycodone analgesia", "setting": "Male Wistar rats [1]; [5]", "result": "weakened by min 15 and 30 and was maintained up to min 45"}, {"measurement": "activity on tramadol analgesia in comparison (to micronized form / to magnesium chloride)", "setting": "Male Wistar rats [1]; [6]", "result": "weaker than the micronized form"}, {"measurement": "effect on antinociceptive activity of tramadol", "setting": "Male Wistar rats [1]; [6]", "result": "increased antynociceptive activity of tramadol"}, {"measurement": "analgesic activity on separate administration (codeine study)", "setting": "Male Wistar rats [1]; single separate administration p.o., codeine 175 mg/kg, magnesium salts 15 mg magnesium ions/kg", "result": "did not exhibit analgesic activity"}, {"measurement": "analgesic activity / pain perception threshold on separate administration (dihydrocodeine study)", "setting": "Male Wistar rats [1]; single separate administration p.o., dihydrocodeine 50 mg/kg, magnesium salts 15 mg magnesium ions/kg", "result": "did not exhibit analgesic activity"}, {"measurement": "analgesic activity / pain threshold when administered alone (morphine study)", "setting": "Male Wistar rats [1]; single separate administration p.o., morphine 15 mg/kg, magnesium salts 15 mg magnesium ions/kg", "result": "Neither morphine nor magnesium lactate and chloride in micronized or normal form administered alone showed analgesic activity"}, {"measurement": "analgesic activity on separate administration (oxycodone study)", "setting": "Male Wistar rats [1]; single separate administration p.o., oxycodone 5 mg/kg, magnesium salts 15 mg magnesium ions/kg", "result": "showed no analgesic activity"}, {"measurement": "analgesic activity on separate administration (tramadol study)", "setting": "Male Wistar rats [1]; single separate administration p.o., tramadol 125 mg/kg, magnesium salts 15 mg magnesium ions/kg", "result": "did not exhibit analgesic activity"}, {"measurement": "activity on codeine analgesia compared to micronized form", "setting": "Male Wistar rats [2]; [7]", "result": "significantly weaker"}, {"measurement": "days on which activity on codeine analgesia appeared", "setting": "Male Wistar rats [2]; [7]", "result": "only appeared on days 6 and 7"}, {"measurement": "activity on dihydrocodeine analgesia compared to micronized form", "setting": "Male Wistar rats [2]; 30 mg magnesium ions/kg p.o. with dihydrocodeine 50 mg/kg p.o., 7 days", "result": "significantly weaker in comparison to the micronized form"}, {"measurement": "activity on morphine analgesia compared to micronized form", "setting": "Male Wistar rats [2]; [8]", "result": "much weaker"}, {"measurement": "days on which activity on morphine analgesia appeared", "setting": "Male Wistar rats [2]; [8]", "result": "only on days 6 and 7"}, {"measurement": "analgesic activity on separate administration, 7 days (codeine study)", "setting": "Male Wistar rats [2]; separate administration p.o., codeine 175 mg/kg, magnesium lactate micronized 15 or normal 30 mg magnesium ions/kg", "result": "did not exhibit analgesic activity"}, {"measurement": "pain threshold on separate administration, 7 days (dihydrocodeine study)", "setting": "Male Wistar rats [2]; separate administration p.o., dihydrocodeine 50 mg/kg, magnesium lactate micronized 15 or normal 30 mg magnesium ions/kg", "result": "did not alter the pain threshold"}, {"measurement": "pain threshold on separate administration, 7 days (morphine study)", "setting": "Male Wistar rats [2]; separate administration p.o., morphine 15 mg/kg, magnesium lactate micronized 15 or normal 30 mg magnesium ions/kg", "result": "did not alter the pain threshold"}, {"measurement": "analgesic activity on separate administration, 7 days (oxycodone study)", "setting": "Male Wistar rats [2]; separate administration p.o., oxycodone 5 mg/kg, magnesium lactate micronized 15 or normal 30 mg magnesium ions/kg", "result": "did not exhibit analgesic activity"}, {"measurement": "pain threshold on separate administration, 10 days (tramadol study)", "setting": "Male Wistar rats [2]; separate administration p.o., tramadol 125 mg/kg, magnesium lactate micronized 15 or normal 30 mg magnesium ions/kg", "result": "did not alter the pain threshold"}]}
